{"source": "ChEMBL document CHEMBL3046900", "about": "“Synthesis and Fungitoxic Activity of N-Cinnamoyl--Amino Acid Esters” (2000)", "type_in_all_cases": "functional", "key": {"[1]": {"system": "Athelia rolfsii", "experiment": "Fungitoxic activity against Athelia rolfsii assessed as mycelial growth inhibition at 100 ppm after 3 days", "conditions": "Agroathelia rolfsii, 72 h; read-out: GI"}, "[2]": {"system": "Athelia rolfsii", "experiment": "Fungitoxic activity against Athelia rolfsii assessed as mycelial growth inhibition at 10 ppm after 3 days", "conditions": "Agroathelia rolfsii, 72 h; read-out: GI"}, "[3]": {"system": "Pythium", "experiment": "Fungitoxic activity against Pythium sp. assessed as mycelial growth inhibition at 10 ppm after 3 days", "conditions": "72 h, read-out: GI"}, "[4]": {"system": "Pythium", "experiment": "Fungitoxic activity against Pythium sp. assessed as mycelial growth inhibition at 100 ppm after 3 days", "conditions": "72 h, read-out: GI"}}}
{"compound": "CCOC(=O)[C@H](C)NC(=O)/C=C/c1ccc(Cl)cc1Cl", "values": [{"measurement": "inhibition of growth at 100 ppm", "setting": "[1]", "value": 52, "unit": "%"}, {"measurement": "inhibition of growth at 10 ppm", "setting": "[2]", "value": 12, "unit": "%"}, {"measurement": "inhibition of growth at 10 ppm", "setting": "[3]", "value": 0, "unit": "%"}, {"measurement": "inhibition of growth at 100 ppm", "setting": "[4]", "value": 55, "unit": "%"}]}
{"compound": "COC(=O)[C@@H](NC(=O)/C=C/c1ccc(Cl)cc1)C(C)C", "values": [{"measurement": "inhibition of growth at 100 ppm", "setting": "[1]", "value": 53, "unit": "%"}, {"measurement": "inhibition of growth at 10 ppm", "setting": "[2]", "value": 20, "unit": "%"}, {"measurement": "inhibition of growth at 10 ppm", "setting": "[3]", "value": 0, "unit": "%"}, {"measurement": "inhibition of growth at 100 ppm", "setting": "[4]", "value": 52, "unit": "%"}]}
